The test system of series [1] is RPMI 1788 human healthy donor peripheral blood leukocytes. The series can be described thus: MTT cytotoxicity assay, normal RPMI 1788 cells. The class given is cell-based. The conditions noted are these: tested at 1–200 µM, three independent experiments, read-out: IC50 RPMI 1788 (normal cell line).
The test system of series [2] is HL-60 human promyelocytic leukemia cells. The series can be described thus: MTT cytotoxicity assay, HL-60. The class given is cell-based. The settings on record: for IC50: Homo sapiens, HL-60, MTT, tested at 1–200 µM, three independent experiments. Background: Tetrazolium assays rely on reduction of a dye to a coloured formazan, in cell work by metabolically active cells.

The subject of another series is lymphatic leukemia P388. The series can be described thus: Antitumor activity, syngeneic lymphatic leukemia P388 in BDF1 mice. The conditions noted are these: for ILS / MST ± SD: i.p. days 1, 5, 9; for antileukemia / antitumor effect (in words): doses under study, i.p. It counts as in vivo, mouse. The protocol: At the next stage, we evaluated them in vivo using syngeneic mouse leukosis P388, which plays an important role in the screening of potential antitumor agents. The antitumor effect of the synthesized compounds was evaluated according to the increase in the average lifespan (ILS, %) of tumor-bearing animals. Due to the fact that physiologically relevant solvent, such as water or physiological solution [49], can be used as a solvent for parenteral administration of substances, we chose only water-soluble compounds 4o–r for the in vivo study.
As model tumors for the determination of antitumor activity of phosphorus-containing derivatives of pyrrolidine, the strain of lymphatic leukemia P388 was chosen. Lymphatic leukemia P388 was transplanted into hybrid mice of the BDF1 line intraperitoneally in accordance with the standard procedure. The inoculum contained 10^6 tumor cells in isotonic solution of NaCl. […] In each experiment, the control group was represented by the cohort of animals with tumors not treated with the compounds. Each group consisted of six mice. The animals were inspected daily over at least 60 days. The effectiveness of therapy was evaluated by the number of surviving animals, as well as by the increase in the average lifespan (ILS%), which was evaluated as the percentage of the mean survival time (MST) of the treated group (t) as compared to the control group (c): […].

Series [3] relates to WI38 human fibroblast cell line. The series can be described thus: MTT cytotoxicity assay, normal WI38 cells. The conditions noted are these: WI-38, tested at 1–200 µM, three independent experiments. The class given is cell-based.
Series [4] relates to HuTu 80 human duodenal adenocarcinoma cells. The series can be described thus: MTT cytotoxicity assay, HuTu 80. It counts as cell-based. The conditions noted are these: for IC50: Homo sapiens, HuTu80, MTT, tested at 1–200 µM, three independent experiments; for SI (selectivity index) HuTu 80: HuTu 80 versus normal WI38 cells.
A short description of series [5]: Acute in vivo toxicity, single intraperitoneal administration. The conditions noted are these: mouse, ip, BDF1 mice, Behrens method, 14 d observation, read-out: half-lethal toxic dose (LD50). Here is the method: Firstly, acute in vivo toxicity was determined in order to calculate doses for the determination of the potential antileukemia activity. An acute toxicity study was carried out on the mice of the BDF1 line weighing from 20 to 24 g. In the experiment, clinically healthy animals were used, which were treated under the same conditions. To evaluate LD50, the toxicity gain curve was plotted against increasing doses (the Behrens method) (Figure 3).
Acute toxicity was evaluated using mice of the BDF1 line weighing from 20 to 24 g. In the experiment, clinically healthy animals treated under the same conditions were used. A total of 4–6 animals were used for each dose. All experiments on animals were carried out according to the Nursery and Vivarium, Russian Academy of Sciences Federal Research Center of Problems of Chemical Physics and Medicinal Chemistry (FRC PCPMC RAS) and in accordance with the rules established by the Commission on Bioethics of the FRC PCPMC RAS. One day after administration of the specimen, the animals were continuously treated for 4 h. Then, death of animals and clinical pattern of intoxication were evaluated once a day for 14 d. The test compounds were added intraperitoneally once. The individual volume of each animal was calculated from the mass of the body and dose of the test compound.
The lethal dose (LD100) for all animals and the maximum tolerable dose (MTD) values were also evaluated. Results of the studies are given in the form of tables and graphs.

For series [6], the system named is M-HeLa human cervix carcinoma cells. The series can be described thus: MTT cytotoxicity assay, M-HeLa. It counts as cell-based. The conditions noted are these: for IC50: Homo sapiens, M-HeLa, tested at 1–200 µM, three independent experiments; for SI (selectivity index) M-HeLa: M-HeLa versus normal WI38 cells.
Where [7] appears, read: dose 16 (table prints no unit; b71 mg/kg).
Where [8] appears, read: dose 22 (table prints no unit; b71 mg/kg).
Setting [9] is: dose 34 (table prints no unit; b71 mg/kg).
Setting [10] is: dose 48 (table prints no unit; b71 mg/kg).
Setting [11] is: dose 72 (table prints no unit; b71 mg/kg).
[12] abbreviates: dose 10 (table prints no unit; b71 mg/kg).
Setting [13] is: dose 15 (table prints no unit; b71 mg/kg).
Where [14] appears, read: dose 31 (table prints no unit; b71 mg/kg).
Setting [15] is: dose 47 (table prints no unit; b71 mg/kg).
Setting [16] is: dose 12 (table prints no unit; b71 mg/kg).
Setting [17] is: dose 17 (table prints no unit; b71 mg/kg).
The mark [18] stands for this setting: dose 27 (table prints no unit; b71 mg/kg).
Setting [19] is: dose 38 (table prints no unit; b71 mg/kg).
Setting [20] is: dose 57 (table prints no unit; b71 mg/kg).

Molecules are shown by their SMILES.

Turning to `CCCCN(CCCC)CCS(=O)(=O)N1CCCC1P(=O)(c1ccccc1)c1ccccc1.Cl` (stereo not drawn) [Compound 4p, N-Butyl-N-(2-((2-(diphenylphosphoryl)pyrrolidin-1-yl)sulfonyl)ethyl)butan-1-aminium chloride], the IC50 turned out to be 176 ± 3.4 µM in series [1]; 76.7 ± 6.1 µM in series [2]; 63.2 ± 5.7 µM in series [3]; 94.4 ± 8.7 µM in series [4]; 57 ± 4.6 µM in series [6] (MTT). In addition, in series [2] (HL-60 versus normal RPMI 1788 leukocytes), the “SI (selectivity index) HL-60” value is given as 2.3. The ILS in the series on lymphatic leukemia P388 (setting [7]) amounted to 100%; with lymphatic leukemia P388 (setting [8]) it was 80%; with lymphatic leukemia P388 (setting [9]) it was 75%; in the series on lymphatic leukemia P388 (setting [10]) it was 55%; in the series on lymphatic leukemia P388 (setting [11]) it was 42%. Also, the “MST ± SD” value with lymphatic leukemia P388 (setting [7]) came out at 20 ± 3.1 days; in the series on lymphatic leukemia P388 (setting [8]) it was 18 ± 3.2 days; with lymphatic leukemia P388 (setting [9]) it was 17.5 ± 2.7 days; in the series with lymphatic leukemia P388 (setting [10]), 15.5 ± 3.4 days; in the series on lymphatic leukemia P388 (setting [11]), 14.2 ± 2.4 days. Moreover, the “antileukemia / antitumor effect (in words)” value in the series on lymphatic leukemia P388 was “exhibited antileukemia activity”. In series [4], the “SI (selectivity index) HuTu 80” value is “- ((-)—no selectivity)”. For the same compound, the LD50 at 14 d in series [5] was 165 ± 18.2 mg/kg. For the same compound, the “SI (selectivity index) M-HeLa” value in series [6] was 1.1. Besides, in series [6] (MTT), the “cytotoxicity against M-HeLa (in words)” value is “moderate cytotoxicity”.
Take `Cl.O=P(c1ccccc1)(c1ccccc1)C1CCCN1S(=O)(=O)CCN1CCCCC1` (stereo not drawn) [Compound 4r, 1-(2-((2-(Diphenylphosphoryl)pyrrolidin-1-yl)sulfonyl)ethyl)piperidin-1-ium chloride]: the IC50 in series [1] is more than 100 µM; in series [2] it was more than 100 µM; in series [3], more than 100 µM; in series [4] it was 97.3 ± 8.2 µM; in series [6] (MTT), 96 ± 8.6 µM. In addition, the ILS in the series with lymphatic leukemia P388 (setting [12]) is −9%; in the series with lymphatic leukemia P388 (setting [13]) it was −2%; in the series on lymphatic leukemia P388 (setting [8]), 4%; in the series with lymphatic leukemia P388 (setting [14]), 0%; in the series on lymphatic leukemia P388 (setting [15]) it was −1%. The “MST ± SD” value in the series on lymphatic leukemia P388 (setting [12]) turned out to be 9.8 ± 0.2 days; with lymphatic leukemia P388 (setting [13]), 10.5 ± 0.8 days; with lymphatic leukemia P388 (setting [8]), 11.2 ± 0.8 days; with lymphatic leukemia P388 (setting [14]) it was 10.8 ± 0.7 days; with lymphatic leukemia P388 (setting [15]), 10.7 ± 0.8 days. The “antileukemia / antitumor effect (in words)” value in the series on lymphatic leukemia P388 is “did not display antitumor effect”. The “SI (selectivity index) HuTu 80” value in series [4] was more than 1. In series [5], the median lethal dose (LD50) at 14 d stood at 170 ± 12.1 mg/kg. The “SI (selectivity index) M-HeLa” value in series [6] is more than 1.
Consider `Cl.O=P(c1ccccc1)(c1ccccc1)C1CCCN1S(=O)(=O)CCN1CCCC1` (stereo not drawn) [Compound 4q, 1-(2-((2-(Diphenylphosphoryl)pyrrolidin-1-yl)sulfonyl)ethyl)pyrrolidin-1-ium chloride], for which the IC50 in series [1], in series [2], in series [3], in series [4] and in series [6] (MTT) was more than 100 µM each time. In addition, the ILS in the series on lymphatic leukemia P388 (setting [16]) was −9%; in the series with lymphatic leukemia P388 (setting [17]), 13%; in the series with lymphatic leukemia P388 (setting [18]), 33%; in the series with lymphatic leukemia P388 (setting [19]), 69%; with lymphatic leukemia P388 (setting [20]), 11%. Moreover, the “MST ± SD” value in the series on lymphatic leukemia P388 (setting [16]) worked out at 8.3 ± 0.6 days; in the series on lymphatic leukemia P388 (setting [17]) it was 10.3 ± 0.9 days; with lymphatic leukemia P388 (setting [18]) it was 12.2 ± 1.7 days; in the series with lymphatic leukemia P388 (setting [19]) it was 15.5 ± 3.9 days; with lymphatic leukemia P388 (setting [20]) it was 10.2 ± 0.2 days. The “antileukemia / antitumor effect (in words)” value in the series on lymphatic leukemia P388 is on record as “exhibited antileukemia activity”. For the same compound, in series [5], the LD50 at 14 d came out at 215 ± 16.7 mg/kg.

Usually IC50 stands for the concentration needed to halve the response being measured. By LD50 is commonly meant the dose at which mortality reaches 50%.
